Laboratory results from patent publication US20030224978A1, “Compounds and methods for modulating apoptosis” (McGill University, priority 1996, published 2003).
Entries after “also recorded” stand apart in the source; their conditions may differ. Positions of bridges follow the written chain, without caps; N, C: chain ends. Residues, ends and D or L forms follow the SMILES beside them.

Columns and labels:
[1] = biological target: T1, chick N-cadherin (Gallus gallus, UniProt P10288); assay: N-cadherin dependent neurite outgrowth of rat cerebellar neurons on N-cadherin expressing 3T3 cells (Example 14); assay type: cell-based; details: for inhibitory activity on N-cadherin dependent neurite outgrowth, in words: Tables 8 and 9, 250 or 125 μg/mL
T1 construct: expressed in transfected cells; host or cells: 3T3 fibroblasts
T1 sequence (P10288 165-912): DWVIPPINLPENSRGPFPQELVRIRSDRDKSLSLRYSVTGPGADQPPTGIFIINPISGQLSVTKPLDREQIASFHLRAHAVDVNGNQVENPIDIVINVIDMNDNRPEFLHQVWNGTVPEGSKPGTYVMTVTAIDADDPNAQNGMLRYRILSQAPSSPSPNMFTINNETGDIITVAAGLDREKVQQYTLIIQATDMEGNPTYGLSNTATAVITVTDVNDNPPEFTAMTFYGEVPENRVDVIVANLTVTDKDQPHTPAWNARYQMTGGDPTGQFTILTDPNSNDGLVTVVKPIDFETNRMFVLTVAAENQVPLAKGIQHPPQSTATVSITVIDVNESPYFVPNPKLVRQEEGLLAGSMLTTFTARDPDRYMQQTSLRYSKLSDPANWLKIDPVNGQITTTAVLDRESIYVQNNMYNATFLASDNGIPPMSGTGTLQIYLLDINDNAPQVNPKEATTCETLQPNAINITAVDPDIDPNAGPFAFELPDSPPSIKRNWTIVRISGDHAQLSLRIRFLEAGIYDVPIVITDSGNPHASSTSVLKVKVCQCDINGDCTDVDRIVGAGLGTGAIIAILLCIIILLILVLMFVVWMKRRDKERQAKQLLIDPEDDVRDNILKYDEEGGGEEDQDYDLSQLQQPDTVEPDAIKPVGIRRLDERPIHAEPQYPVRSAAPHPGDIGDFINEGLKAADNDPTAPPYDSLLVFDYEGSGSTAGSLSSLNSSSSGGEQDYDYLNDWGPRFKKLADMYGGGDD

[2] = in vitro; assay type: cell-based; details: human
Method in brief: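 Cytotoxicity assessed by MTT assay and proliferation by ³H-thymidine incorporation, with peptides tested at concentrations up to 100 μM.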

[3] = test system: angiogenesis in chick embryonic chorioallantoic membranes; assay: Chick chorioallantoic membrane angiogenesis assay; assay type: in vivo; details: for inhibition of angiogenesis, in words: 3, 17, and 33 μg/mesh; for percent inhibition of angiogenesis: 24 hours
Method: The chick chorioallantoic membrane assay was used to assess the effects of cyclic peptides on angiogenesis (Iruela-Arispe et al., Molecular Biology of the Cell 6:327-343, 1995). Cyclic peptides were embedded in a mesh composed of vitrogen at concentrations of 3, 17, and 33 μg/mesh. The meshes were then applied to 12-day-old chick embryonic chorioallantoic membranes. After 24 hours, the effects of the peptides on angiogenesis were assessed by computer assisted morphometric analysis.
For each concentration of cyclic peptide, the percent inhibition of angiogenesis (relative to the level of angiogenesis in the absence of cyclic peptide) is provided. Assays were performed in the presence (+) or absence (−) of […] VEGF. For example, the cyclic peptide N-Ac-CHAVC-NH2 (SEQ ID NO:10) inhibited angiogenesis by 46%, 51%, and 51% at concentrations of 3, 17, and 33 μg/mesh, respectively.

Row | Structure (SMILES) | inhibition at 250 µg/mL ([1]; NIH3T3, 250 μg/mL, 16-18 hours) | IC50 [2] | inhibitory activity on N-cadherin dependent neurite outgrowth, in words [1] | inhibition of angiogenesis, in words [3] | also measured
1 | CC(=O)N[C@H]1CSSC[C@@H](C(N)=O)NC(=O)[C@H](C(C)C)NC(=O)CNC(=O)[C@H](Cc2c[nH]cn2)NC1=O [N-Ac-CHGVC-NH2, reference compound] | 4.8 ± 5.3% |  |  |  | 
2 | CC(=O)N[C@H]1CSSC[C@@H](C(N)=O)NC(=O)[C@H](C(C)C)NC(=O)[C@H](C)NC(=O)[C@H](Cc2c[nH]cn2)NC1=O [N-Ac-CHAVC-NH2, N-Ac-Cys-His-Ala-Val-Cys-NH2] | 68.2% |  |  |  | % Inhibition of N-cadherin dependent neurite outgrowth ([1]; 250 μg/mL, 16-18 hours): 68.2 ± 5.1 (4) %; inhibition at 125 µg/mL ([1]; NIH3T3, 125 μg/mL, 16-18 hours): 33.2%; effect on the N-cadherin response, in words ([1]; concentrations up to 62 μg/ml): no significant effect on the N-cadherin response; EC50 ([1]; from dose-response curve): 220 µM
3 | CC(=O)N[C@H]1CSSC[C@@H](C(N)=O)NC(=O)[C@H](CO)NC(=O)[C@H](C(C)C)NC(=O)[C@H](C)NC(=O)[C@H](Cc2c[nH]cn2)NC1=O [N-Ac-CHAVSC-NH2, N-Ac-Cys-His-Ala-Val-Ser-Cys-NH2] (Ac-CHAVSC-NH2; disulfide 1-6) | -2.5 ± 7.4% | > 100 µM |  | relatively inactive | reduction in inhibitory activity on flanking HAV with E-cadherin amino acids ([1]; Table 8, 250 μg/mL): complete; percent inhibition of angiogenesis ([3]; 3 μg/mesh, absence (−) of 0.01 mM VEGF): 11%; percent inhibition of angiogenesis ([3]; 3 μg/mesh, presence (+) of 0.01 mM VEGF): 17%; percent inhibition of angiogenesis ([3]; 17 μg/mesh, absence (−) of 0.01 mM VEGF): 12%; percent inhibition of angiogenesis ([3]; 17 μg/mesh, presence (+) of 0.01 mM VEGF): 16%; percent inhibition of angiogenesis ([3]; 33 μg/mesh, absence (−) of 0.01 mM VEGF): 17%; percent inhibition of angiogenesis ([3]; 33 μg/mesh, presence (+) of 0.01 mM VEGF): 19%

More lines, main results first:

Row | inhibition at 250 µg/mL ([1]; NIH3T3, 250 μg/mL, 16-18 hours) | IC50 [2] | Structure (SMILES) | inhibitory activity on N-cadherin dependent neurite outgrowth, in words [1] | inhibition of angiogenesis, in words [3] | also measured
4 | 13.3 ± 8.3% | > 100 µM | CC(=O)N[C@H]1CSSC[C@@H](C(N)=O)NC(=O)[C@H](CC(=O)O)NC(=O)[C@H](C(C)C)NC(=O)[C@H](C)NC(=O)[C@H](Cc2c[nH]cn2)NC(=O)[C@H](C)NC1=O [N-Ac-CAHAVDC-NH2, N-Ac-Cys-Ala-His-Ala-Val-Asp-Cys-NH2] (Ac-CAHAVDC-NH2; disulfide 1-7) | completely eliminated inhibitory activity | inhibited angiogenesis significantly | 
5 | 89.4% | > 100 µM | CC[C@H](C)[C@@H]1NC(=O)[C@H](CC(=O)O)NC(=O)[C@H](C(C)C)NC(=O)[C@H](C)NC(=O)[C@H](Cc2c[nH]cn2)NC(=O)[C@H](C)NC(=O)[C@@H](NC(C)=O)CSSC[C@@H](C(N)=O)NC1=O (Ac-CAHAVDIC-NH2; disulfide 1-8) | reduced, but did not eliminate, the activity; also recorded: potent inhibitors of neurite outgrowth | inhibited angiogenesis significantly | activity on N-cadherin dependent neurite outgrowth at lower concentration, in words ([1]; concentrations of 125 µg/mL or below): lost activity
